This is an account of results in patent publication US4835159A, “Ergoline esters useful as serotonin antagonists” (Eli Lilly and Company, priority 1988, dated 1989).

SMILES strings stand for the structures. Counter-ions that a name gives are not always drawn. Like-named read-outs stand apart in the source and are kept apart here.

This test concerns the target T1, 5HT2 receptors (Rattus norvegicus, UniProt P14842).
T1 construct: external jugular veins and thoracic aortas were dissected free of connective tissue; from tissue; host or cells: isolated external jugular vein of male Wistar rats
In words: Apparent antagonist dissociation constant (KB) for 5HT2 receptors: serotonin-induced contraction of isolated jugular vein. Set-up: species or system rat (male Wistar). The text has this:
Male Wistar rats, each weighing from approximately 150 g to about 300 g, were sacrificed and their external jugular veins and thoracic aortas were dissected free of connective tissue, cannulated in situ and placed in a modified Krebs' bicarbonate buffer in a suitable tissue bath. Two L-shaped 30-gauge stainlesssteel hypodermic needles were inserted into each cannula and the dissected vessels gently pushed onto the needles. One needle was attached with thread to a stationary glass rod and the other to the transducer. The modified Krebs' bicarbonate buffer was composed of the following ingredients in millimoles: sodium chloride, 118.2; potassium chloride, 4.6; calcium chloride dihydrate, 1.6; potassium dihydrogenphosphate, 1.2; magnesium sulfate, 1.2; dextrose, 10.0; sodium bicarbonate, 24.8; and water q.s. to 1000 g. The tissue baths were maintained at 37° C. and were aerated with 95% oxygen-5% carbon dioxide. An initial optimum resting force of 1 g and 4 g was applied to the jugular vein and aorta, respectively. Isometric contractions were recorded as changes in grams of force on a Beckman Dynograph with Statham UC-3 transducers and a microscale accessory attachment. Tissues were allowed to equilibrate 1 to 2 hours before exposure to the test compounds. Control responses to serotonin in the jugular vein and to norepinephrine in the aorta were obtained. The vessels were then incubated with appropriate concentrations of the test compound for one hour. Responses to serotonin or to norepinephrine were then repeated in the presence of the antagonist. Contraction to serotonin was evaluated in the jugular vein since this tissue is known to produce marked responses to serotonin in the absence of alpha receptors. See Cohen and Wiley, J. Pharm. Exp. Ther., 205, 400 (1978). Alpha receptor antagonist activity was evaluated in the aorta.
Apparent antagonist dissociation constants were determined for each concentration of antagonist according to the following equation: […]

T1 sequence (P14842 whole entry): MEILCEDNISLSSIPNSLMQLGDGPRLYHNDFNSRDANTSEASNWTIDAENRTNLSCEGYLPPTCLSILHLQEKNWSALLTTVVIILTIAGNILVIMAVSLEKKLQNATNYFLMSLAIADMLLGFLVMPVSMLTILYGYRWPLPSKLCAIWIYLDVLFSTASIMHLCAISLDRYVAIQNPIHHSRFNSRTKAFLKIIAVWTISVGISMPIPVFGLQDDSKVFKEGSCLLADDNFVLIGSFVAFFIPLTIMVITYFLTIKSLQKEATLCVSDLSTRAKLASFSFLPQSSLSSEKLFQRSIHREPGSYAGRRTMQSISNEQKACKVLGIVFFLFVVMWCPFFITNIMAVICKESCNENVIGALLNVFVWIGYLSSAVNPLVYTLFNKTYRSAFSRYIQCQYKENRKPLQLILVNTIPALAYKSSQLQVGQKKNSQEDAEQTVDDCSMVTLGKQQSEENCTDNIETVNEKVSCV

With `CC(C)n1cc2c3c(cccc31)[C@H]1C[C@@H](C(=O)OC3CCCC4C(O)CCCC34)CN(C)[C@@H]1C2` (stereo partly drawn) [Example 1, Decahydro-t-hydroxy-1-naphthalenyl 1-isopropyl-9,10-dihydrolysergate maleate], the Kb (rat jugular vein, contraction to serotonin, 1 hour incubation with test compound, 37° C., average of the number of trials, read-out: log KB ± standard error (-log KB, serotonin receptor activity) (converted)) was 0.224 nM.
`CC(C)n1cc2c3c(cccc31)[C@H]1C[C@@H](C(=O)OC3CCC4CCCCC4C3)CN(C)[C@@H]1C2` (stereo partly drawn) [Example 2, Decahydro-2-naphthalenyl 1-isopropyl-9,10-dihydrolysergate maleate]: the Kb was < 100 nM.
On to `CC(C)n1cc2c3c(cccc31)[C@H]1C[C@@H](C(=O)OC3CC4CC(O)CC4C3)CN(C)[C@@H]1C2` (stereo partly drawn) [Example 3, Octahydro-5-hydroxy-2-pentalenyl 1-isopropyl-9,10-dihydrolysergate hemihydrate], for which the Kb is 0.631 nM.
